Results taken from patent publication US12728116B2, “Methods of treating multiple sclerosis” (Vanda Pharmaceuticals Inc., priority 2021, dated 2026).

Tests used:
[1] = system: adult subjects with relapsing MS; test: Confirmed relapses up to EOS - annualized relapse rate (ARR), phase III study; assay type: in vivo, human; conditions: for Total number of relapses (confirmed, up to EOS): total time 1119 / 1137 years; for Mean estimate (ARR), confirmed relapses up to EOS, negative binomial regression: ponesimod 20 mg, teriflunomide 14 mg
Experimental: Primary efficacy variable/primary timepoint: The primary endpoint was annualized relapse rate (ARR) up to the end of study (EOS) defined as the number of confirmed relapses per subject-year. All available data up to EOS, regardless of treatment discontinuation was included (ITT approach).
A generalized linear model with negative binomial distribution was fitted for the primary efficacy endpoint ARR. Two-sided hypotheses were expressed in terms of the model parameters μP20 mg and μT14 mg.
The primary statistical analysis of the ARR endpoint was performed on the FAS using a negative binomial model for confirmed relapses, with the stratification variables prior use of disease-modifying therapies (DMTs) and EDSS category as well as the number of relapses in the year prior to study entry, included in the model and time in the study as an offset variable. Sensitivity analyses was performed on the PPS and also based on different subgroups derived from baseline variables.
A relapse is defined as new, worsening or recurrent neurological symptoms that occur at least 30 days after the onset of a preceding relapse, and that last at least 24 hours, in the absence of fever or infection.
A relapse was confirmed by the treating neurologist only when the subjects' symptoms were accompanied by an increase in EDSS/FS (functional system) scores, which were consistent with the subject's symptoms, from a previous clinically stable EDSS/FS assessment (i.e., performed at least 30 days after the onset of any previous relapse), obtained by the efficacy assessor and consistent with the following: • An increase of at least half a step (0.5 points; unless EDSS=0, then an increase of at least 1.0 points is required) or • An increase of at least 1.0 point in at least two FS scores, or • An increase of at least 2.0 points in at least one FS score (excluding bladder/bowel and cerebral).
The primary statistical analysis was performed up to EOS on the FAS using a negative binomial regression model for confirmed relapses, with treatment as a factor and the binary stratification variables (EDSS≤3.5 versus EDSS>3.5; DMTs within last 2 years prior to randomization [Yes/No]) and the number of relapses in the year prior to study entry (categories≤1 (or missing) and […]) included in the model. The model also included an offset variable defined as the log of time on study (in years) from randomization up to EOS.
This subgroup analysis examined patients with EDSS≤3 (up to moderate disability in one function, or mild disability in three or four functions; no impairment to walking), and/or who were treatment naïve.
ARR differences and mean number of CUALs were examined using a negative binomial regression model with adjusting for the log time in the study (in years) as an offset.

[2] = system: adult subjects with relapsing MS; test: Time to first 12-week / 24-week confirmed disability accumulation (CDA) on EDSS; assay type: in vivo, human; conditions: for Subjects with a 12-week CDA up to EOS / Subjects with a 24-week CDA up to EOS: ponesimod 20 mg, teriflunomide 14 mg
Experimental: Secondary efficacy variables and testing strategy: Four secondary efficacy endpoints were analyzed as per the statistical testing strategy outlined in FIG. 1. • Change from baseline to Week 108 in fatigue-related symptoms as measured by the symptoms domain of the FSIQ-RMS patient-reported outcome [Fatigue] • Cumulative number of combined unique active lesions from baseline to Week 108 on brain MRI [CUALs] • Time to first 12-week confirmed disability accumulation (CDA) from baseline to EOS on Expanded Disability Status Scale (EDSS) [12-week CDA] • Time to first 24-week CDA from baseline to EOS on EDSS [24-week CDA]
A 12-week CDA is an increase of at least 1.5 in EDSS for subjects with a baseline EDSS score of 0.0 or an increase of at least 1.0 in EDSS for subjects with a baseline EDSS score of 1.0 to 5.0, or an increase of at least 0.5 in EDSS for subjects with a baseline EDSS score≥5.5 which is to be confirmed after 12 weeks.
All EDSS measurements (with or without relapse, at a scheduled or unscheduled visit) were used to determine the onset of disability accumulation. However, EDSS scores used for confirmation of disability accumulation were obtained at a scheduled visit (i.e., unscheduled visits cannot be used as confirmatory visits) outside any ongoing relapse. In this context, relapse duration is defined as period between start and end dates if available and limited to 90 days from onset if end date is not available or duration is longer than 90 days.
In order to confirm that the EDSS increase is persistent, all EDSS measurements between the onset and the 12-week EDSS confirmation (minus 7-day visit time-window) need to show an increase in EDSS, meeting the criteria for accumulation of disability as defined above.
A 24-week CDA is an increase of at least 1.5 in EDSS for subjects with a baseline EDSS score of 0.0 or an increase of at least 1.0 in EDSS for subjects with a baseline EDSS score of 1.0 to 5.0, or an increase of at least 0.5 in EDSS for subjects with a baseline EDSS score≥5.5 which is to be confirmed after 24 weeks.
In order to confirm that the EDSS increase is persistent, all EDSS measurements between the onset and the 24-week EDSS confirmation (minus 7-day visit time-window) need to show an increase in EDSS, meeting the criteria for accumulation of disability as defined above.

[3] = system: adult subjects with relapsing MS; test: 12-lead ECG heart rate and first-dose effects on Day 1; assay type: in vivo, human; conditions: for Mean heart rate change compared to pre-dose at 2-hours post dose / Subjects with asymptomatic post-dose HR≤40 bpm: Day 1; for Mean heart rate change compared to pre-dose at 2-hours post dose: 12-lead ECG, Safety Set; for Subjects with asymptomatic post-dose HR≤40 bpm: all with pre-treatment HR <55 bpm
Experimental: As per up-titration regimen, the dose of ponesimod on Day 1 is 2 mg.

[4] = system: adult subjects with relapsing MS; test: Premature treatment discontinuation; assay type: in vivo; conditions: for Subjects discontinued due to AEs or tolerability related reasons: ponesimod 20 mg, teriflunomide 14 mg
Experimental: A total of 1468 subjects were screened. Of those, 1133 subjects were randomized (567 to ponesimod 20 mg and 566 to teriflunomide 14 mg) across 162 sites in 28 countries, and 1131 subjects received at least one dose of study drug. The disposition of subjects is summarized in Table 1 and a summary of reasons (primary reason) for treatment discontinuation are shown in Table 2. Overall treatment and study discontinuation were balanced across both treatment arms. A total of 6.5% and 2.5% of the subjects discontinued due to AEs or tolerability related reasons in ponesimod 20 mg and teriflunomide 14 mg, respectively, while 1.9% and 4.3% discontinued due to efficacy related reasons. There were 2 deaths reported during the study—both on teriflunomide 14 mg.

[5] = ponesimod 20 mg vs teriflunomide 14 mg, not statistically significant

| SMILES | Raw ARR ([1]; Full Analysis Set) | Total number of relapses (confirmed, up to EOS) ([1]; Full Analysis Set) | Mean estimate (ARR), confirmed relapses up to EOS, negative binomial regression ([1]; Full Analysis Set) | Subjects with a 12-week CDA up to EOS [2] | Subjects with a 24-week CDA up to EOS ([2]; exploratory) | Mean heart rate change compared to pre-dose at 2-hours post dose [3] | Subjects with asymptomatic post-dose HR≤40 bpm [3] | Premature discontinuation: Physician decision, Adverse event, % ([4]; Safety Set) | Premature discontinuation: Subject decision, Tolerability related, % ([4]; Safety Set) | Subjects discontinued due to AEs or tolerability related reasons [4] | also measured |
| --- | --- | --- | --- | --- | --- | --- | --- | --- | --- | --- | --- |
| C/C(O)=C(\C#N)C(=O)Nc1ccc(C(F)(F)F)cc1 [Teriflunomide, reference compound] | 0.303 | 344 | 0.290 | 12.4% | 9.9% | −1.7 bpm | none | (1.6) % | (0.9) % | 2.5% | Premature discontinuation: Death, % ([4]; Safety Set): (0.4) % |
| CCC/N=C1\S/C(=C\c2ccc(OC[C@H](O)CO)c(Cl)c2)C(=O)N1c1ccccc1C [Ponesimod, (R)-5-[3-chloro-4-(2,3-dihydroxy-propoxy)-benz[Z]ylidene]-2-([Z]-propylimino)-3-o-tolyl-thiazolidin-4-one] | 0.216 | 242 | 0.202 | 10.1% | 8.1% | −8.7 bpm | 3 | (5.1) % | (1.4) % | 6.5% | ARR rate ratio (RR), ponesimod vs teriflunomide ([1]; EDSS≤3 subgroup): 0.530; Reduction of ARR vs teriflunomide ([1]; EDSS≤3 subgroup): 47%; Reduction of ARR (confirmed relapses) up to EOS compared to teriflunomide ([1]; ponesimod 20 mg vs teriflunomide 14 mg): 30.5%; Treatment effect (rate ratio) on ARR, ponesimod vs teriflunomide ([1]; ponesimod 20 mg vs teriflunomide 14 mg, Full Analysis Set): 0.695; Time to first 24-week CDA, hazard ratio ponesimod vs teriflunomide ([2]; Full Analysis Set, exploratory): 0.84; Time to first 12-week CDA, hazard ratio ponesimod vs teriflunomide ([2]; Full Analysis Set, stratified Cox regression): 0.83; Reduction of risk of 12-week CDA compared to teriflunomide [2, 5]: 17%; Reduction of risk of 24-week CDA compared to teriflunomide [2, 5]: 16%; 2nd or higher degree AV block ([3]; Day 1, first dose): No 2nd or higher degree AV block was observed; Subjects meeting discharge criteria at 4 hours post-dose ([3]; Day 1, first dose): ca. 99%; ECG HR effect: time of nadir post-dose ([3]; Day 1, ponesimod 2 mg): 2 h |
